Experimental data from paper PMC5929572, “Nucleobases and corresponding nucleosides display potent antiviral activities against dengue virus possibly through viral lethal mutagenesis” (PLoS Neglected Tropical Diseases, 2018).
Read-outs that look alike come from different tables or passages of the source.

Assays:
DENV-2 viral replicon = test: microbe, parasite or virus in culture; format: cell-based; settings: for EC50: Dengue virus
Procedure: Compounds were evaluated for antiviral properties using BHK cells containing a DENV-2 viral replicon. 1.5 × 10^3 replicon-containing cells per well were plated in white opaque 96-well plates in the absence of antibiotic selection and the next day, compounds dissolved in DMSO were added to triplicate wells in culture medium. The compounds were initially tested at 10 and 50 μM final concentrations and each plate also contained DMSO alone, medium alone, and 6. Three days later, medium was replaced with a 1:1000 dilution of ViVi-Ren Live Cell Substrate (Promega) in DME minus phenol red and 10% FBS. Luminescence was measured with a Molecular Devices M5e plate reader. Mean values of triplicate wells were determined and compared to the mean value for the wells that received DMSO alone. […] The EC50 was determined by comparing luciferase activity for eight serial dilutions of the compound and DMSO treated cells using GraphPad Prism software.

[1] = test system: DENV replicon cells (BHK pD2-hRucPac-2ATG30); test: Cell viability assay (MTS) in DENV replicon cells; format: cell-based, baby hamster
[2] = Cell viability assay (MTS) in DENV replicon cells; format: cell-based, baby hamster; settings: hamster, DENV replicon cells (BHK pD2-hRucPac-2ATG30), DENV replicon BHK cells, MTS, 72 h
DENV-2 [3] = test: Virus passage in presence of compound, supernatant titer by plaque assay; format: cell-based, DENV-2 New Guinea C strain; settings: 3a 200 μM, Huh-7, passages 5 and 6; limit of detection 3.3 pfu/mL
Procedure: Huh-7 cells were seeded in 12-well plates at a density of 4×10^5 cells per well in 1 mL culture medium. The next day, cells were washed and inoculated with DENV at a multiplicity of infection (m.o.i.) of 0.2 in 500μl infection medium (MEM containing 2% FBS and 10 mM HEPES). The inoculum was removed after 1h, cells were washed with PBS and then incubated in 1 mL MEM, 2% FBS, 1% pen/strep plus compound for 72 h. Viral supernatants were clarified by centrifugation for 5 min at 1500×g and aliquoted and stored at -80°C. Viral titers were determined using a plaque assay on Vero cells. Briefly, confluent Vero cell monolayers in 24-well plates were incubated at 37°C for 1 h with duplicate 300 μl samples of 10-fold serial dilutions of viral supernatants. The cells were then washed to remove unbound viral particles and overlaid with 500ul MEM containing 1.3% methylcellulose, 5% FBS and 10mM HEPES. […] Infectious virus titer (pfu/mL) was determined using the following formula: number of plaques × dilution factor × (1/inoculation volume). […]
(§1) Virus was passaged on Huh-7 cells supplemented with 200 μM 3a, 500 μM 3b or DMSO (0.5%). […] The virus titer in the harvested supernatant was determined by plating ten-fold serial dilutions onto single wells of a 24-well plate. […] Supernatant titer was determined from a single well where there were approximately 20–50 plaques when possible. […]

[4] = Cell viability assay (MTS) in Huh-7 cells; format: cell-based; settings: human
Procedure: The sensitivity of the cell lines to the compounds was examined using the 3-(4,5-dimethylthiazol-2-yl)-5-(3-carboxymethoxyphenyl)-2-(4-sulfophenyl)-2H-tetrazolium (MTS)-based tetrazolium reduction CellTiter 96 Aqueous Non-Radioactive cell proliferation assay (Promega G5430). The compounds were initially tested at 10 and 50 μM final concentrations. Each plate also contained DMSO alone, medium alone, and an inhibitory compound, 6. DENV replicon or Huh-7 cells were plated at a density of 1,500 or 8 × 10^3 cells, respectively, per well in 96-well plates containing 100 μl of culture medium overnight. Compounds were added to triplicate wells in culture medium and incubated for an additional 72 h. MTS reagent was then added to each well and incubated at 37°C in a humidified 5% CO2 atmosphere. The plates were read at various time points at a wavelength of 490 nm using a Molecular Devices M5e plate reader. Mean values of triplicate wells were determined and compared to the mean value for the wells that received DMSO alone. For compounds selected for dose-response experiments, the CC50 was determined by comparing cell viability for eight serial dilutions of the compound and DMSO treated cells using GraphPad Prism software.

DENV-2 [5] = test: Sequence analysis of prM/E region clones from passaged virus (mutation frequency); format: cell-based, DENV-2 New Guinea C strain
Procedure: For qPCR determination of viral genome copy number, viral RNA was isolated from 140 μL of drug-treated or DMSO-treated infected culture supernatant using QIAamp Viral RNA mini kit (Qiagen), following manufacturer’s protocol. Viral RNA was quantified using the TaqMan RNA-to-CT 1-Step qPCR Kit (Applied Biosystems). Primers used for qPCR were 5’-[…]-3’ (forward) and 5’-[…]-3’ (reverse) amplifying a region numbering 8928–8988 in the genome (numbering starting from the beginning of genome, accession number KM204118). The qPCR FAM probe sequence is 5’-[…]-3’. Serial 10-fold dilutions of plasmid containing the NS5 gene of DENV were used to generate a standard curve for the quantification of viral RNA genome copy number based on cycle threshold (CT) values. The limit of detection for NS5 plasmid dilutions was 30 copies (S1 Fig). […] Statistical analysis via GraphPad Prism 5 software. To obtain sequence data from viral RNA isolated at each passage, cDNA was generated via M-MLV reverse transcriptase and random hexamers (New England Biolab Inc.) per manufacturer’s instructions. An approximately 1600-base fragment covering membrane protein (prM) and envelop protein gene (E) of DENV-2 viral genome was amplified using PfuUltra II Fusion HS DNA polymerase (Agilent) with primers prMEfor (5'- […]-3') and prMErev (5'- […] -3'). PCR products were purified using Qiaquick PCR purification kit (Qiagen) and then digested with EcoRI and ligated into pcDNA3.1 for sequencing. Sequence for approximately 40–50 individual clones per sample was obtained from the University of Minnesota Genomics Center. Sequences were aligned over a 980-base region that had adequate quality sequencing reads for all clones. Only mutations present in both the forward and reverse reads of a clone were counted. All incidence-based determinants of mutation frequency (Mf min, Mf max, Mfe) were calculated as described.
Virus was passaged on Huh-7 cells supplemented with 200 μM 3a, 500 μM 3b or DMSO (0.5%). Huh-7 cells were seeded in 12-well plates and inoculated with DENV-2 as described for Titer reduction experiments above except an m.o.i. of 0.01 was used. After 3 days of compound treatment, 50 μL of the harvested supernatant was used to inoculate fresh Huh-7 cells in the continued presence of compound. The virus titer in the harvested supernatant was determined by plating ten-fold serial dilutions onto single wells of a 24-well plate. The wells were washed and overlaid as described in the Titer reduction assay above. If no plaques were obtained in any of the harvested supernatant dilutions, the undiluted supernatant was used. If plaques were not detectable, the virus titer was considered to be at the limit of detection, 1 plaque (3.3 pfu/mL). Supernatant titer was determined from a single well where there were approximately 20–50 plaques when possible. This experiment was repeated three times at the compound concentrations listed.

DENV-2 [6] = test: Titer reduction assay in Huh-7 cells, plaque assay on Vero cells; format: cell-based, DENV-2 New Guinea C strain; settings: Dengue virus, DENV2, m.o.i. 0.2, 72 h
Procedure: Huh-7 cells were seeded in 12-well plates at a density of 4×10^5 cells per well in 1 mL culture medium. The next day, cells were washed and inoculated with DENV at a multiplicity of infection (m.o.i.) of 0.2 in 500μl infection medium (MEM containing 2% FBS and 10 mM HEPES). The inoculum was removed after 1h, cells were washed with PBS and then incubated in 1 mL MEM, 2% FBS, 1% pen/strep plus compound for 72 h. Viral supernatants were clarified by centrifugation for 5 min at 1500×g and aliquoted and stored at -80°C. Viral titers were determined using a plaque assay on Vero cells. Briefly, confluent Vero cell monolayers in 24-well plates were incubated at 37°C for 1 h with duplicate 300 μl samples of 10-fold serial dilutions of viral supernatants. The cells were then washed to remove unbound viral particles and overlaid with 500ul MEM containing 1.3% methylcellulose, 5% FBS and 10mM HEPES. After 5 days of incubation at 37°C and 5% CO2, cells were washed with PBS, fixed, and stained using 1% Giemsa. Infectious virus titer (pfu/mL) was determined using the following formula: number of plaques × dilution factor × (1/inoculation volume). The viral titer was presented as the mean of duplicate samples from a dilution yielding approximately 20–50 plaques per well.

DENV-2 [7] = test: Virus passage in presence of compound, genome copy number by RT-qPCR (NS5); format: cell-based, DENV-2 New Guinea C strain; settings: 3a 200 μM, Huh-7, passage 6; limit of detection 30 copies
Procedure: For qPCR determination of viral genome copy number, viral RNA was isolated from 140 μL of drug-treated or DMSO-treated infected culture supernatant using QIAamp Viral RNA mini kit (Qiagen), following manufacturer’s protocol. Viral RNA was quantified using the TaqMan RNA-to-CT 1-Step qPCR Kit (Applied Biosystems). Primers used for qPCR were 5’-[…]-3’ (forward) and 5’-[…]-3’ (reverse) amplifying a region numbering 8928–8988 in the genome (numbering starting from the beginning of genome, accession number KM204118). The qPCR FAM probe sequence is 5’-[…]-3’. Serial 10-fold dilutions of plasmid containing the NS5 gene of DENV were used to generate a standard curve for the quantification of viral RNA genome copy number based on cycle threshold (CT) values. […] Sequences were aligned over a 980-base region that had adequate quality sequencing reads for all clones. Only mutations present in both the forward and reverse reads of a clone were counted. All incidence-based determinants of mutation frequency (Mf min, Mf max, Mfe) were calculated as described.
as §1

[8] = DENV2, 72 h, DENV replicon BHK cells, luciferase, 3 days, read-out: EC50
[9] = passage 2, 3a 200 μM, 3b 500 μM, Huh-7
[10] = passage 3, 3a 200 μM, 3b 500 μM, Huh-7

NC(=O)c1nc[nH]n1 [Compound 1a, 1,2,4-Triazole-3-carboxamide]
EC50 (DENV-2 viral replicon; DENV2, BHK, 72 h): 4.9 ± 1.6 µM
CC50 ([1]; DENV replicon BHK cells, MTS, 72 h): > 665 µM
cytotoxicity ([1]; at 1000 μM, DENV replicon cells): did not show cytotoxicity
CC50 at 72 h [2]: > 1000 µM

NC(=O)c1ncn([C@@H]2O[C@H](CO)[C@@H](O)[C@H]2O)n1 [Compound 1b, ribavirin, reference compound]
CC50 at 72 h [2]: 20 µM

NC(=O)c1nc[nH]c1O [Compound 2a, 5-Hydroxy-1H-imidazole-4-carboxamide]
EC50 (DENV-2 viral replicon; [8]): 2.4 µM
CC50 at 72 h [2]: 23 ± 4.2 µM

NC(=O)c1ncn([C@@H]2O[C@H](CO)[C@@H](O)[C@H]2O)c1O [Compound 2b, mizoribine, reference compound]
EC50 (DENV-2 viral replicon; [8]): 15 µM
CC50 at 72 h [2]: 33 ± 12 µM

NC(=O)c1nccnc1O [Compound 3a, 3-Hydroxy-2-pyrazinecarboxamide]
infectious virus in supernatant (DENV-2 [3]): no infectious virus was detected
CC50 at 72 h [4]: > 1000 µM
times more active than nucleobase 5a (favipiravir) (DENV-2 viral replicon; DENV replicon cells, EC50 compared): 5 times
CC50 at 72 h [2]: > 665 µM
number of mutations per clone compared to DMSO (DENV-2 [5]; 3a 200 μM passage 4, 3b 500 μM passage 3, p < 0.0001, Mann-Whitney U): significant difference
Mf max (maximum mutation frequency) (DENV-2 [5]; [9]): 24.6 per 10,000 nucleotides
Mf min (minimum mutation frequency) (DENV-2 [5]; [9]): 5.2 per 10,000 nucleotides
Mfe (entity level mutation frequency) (DENV-2 [5]; [9]): 2.5 ×10^−3
Number of clones with mutation/total (DENV-2 [5]; [9]): 26/36
Number of different mutations (DENV-2 [5]; [9]): 17
Number of haplotypes (DENV-2 [5]; [9]): 17
Number of total mutations (DENV-2 [5]; [9]): 80
Transition A→G, number of mutations (DENV-2 [5]; [9]): 3
Transition C→U, number of mutations (DENV-2 [5]; [9]): 4
Transition G→A, number of mutations (DENV-2 [5]; [9]): 3
Transition U→C, number of mutations (DENV-2 [5]; [9]): 1
Transversion A→U, number of mutations (DENV-2 [5]; [9]): 1
Transversion G→U, number of mutations (DENV-2 [5]; [9]): 2
Transversion U→A, number of mutations (DENV-2 [5]; [9]): 2
Transversion U→G, number of mutations (DENV-2 [5]; [9]): 1
Mf max (maximum mutation frequency) (DENV-2 [5]; [10]): 5.7 per 10,000 nucleotides
Mf min (minimum mutation frequency) (DENV-2 [5]; [10]): 2.7 per 10,000 nucleotides
Mfe (entity level mutation frequency) (DENV-2 [5]; [10]): 1.4 ×10^−3
Number of clones with mutation/total (DENV-2 [5]; [10]): 12/37
Number of different mutations (DENV-2 [5]; [10]): 9
Number of haplotypes (DENV-2 [5]; [10]): 9
Number of total mutations (DENV-2 [5]; [10]): 19
Transition C→U, number of mutations (DENV-2 [5]; [10]): 3
Transition G→A, number of mutations (DENV-2 [5]; [10]): 3
Transition U→C, number of mutations (DENV-2 [5]; [10]): 2
Transversion G→U, number of mutations (DENV-2 [5]; [10]): 1
Mf max (maximum mutation frequency) (DENV-2 [5]; passage 4, 3a 200 μM, Huh-7): 6.6 per 10,000 nucleotides
Mf min (minimum mutation frequency) (DENV-2 [5]; passage 4, 3a 200 μM, Huh-7): 3.9 per 10,000 nucleotides
Mfe (entity level mutation frequency) (DENV-2 [5]; passage 4, 3a 200 μM, Huh-7): 1.6 ×10^−3
Number of clones with mutation/total (DENV-2 [5]; passage 4, 3a 200 μM, Huh-7): 19/45
Number of different mutations (DENV-2 [5]; passage 4, 3a 200 μM, Huh-7): 16
Number of haplotypes (DENV-2 [5]; passage 4, 3a 200 μM, Huh-7): 15
Number of total mutations (DENV-2 [5]; passage 4, 3a 200 μM, Huh-7): 27
Transition A→G, number of mutations (DENV-2 [5]; passage 4, 3a 200 μM, Huh-7): 2
Transition C→U, number of mutations (DENV-2 [5]; passage 4, 3a 200 μM, Huh-7): 3
Transition G→A, number of mutations (DENV-2 [5]; passage 4, 3a 200 μM, Huh-7): 3
Transition U→C, number of mutations (DENV-2 [5]; passage 4, 3a 200 μM, Huh-7): 4
Transversion C→A, number of mutations (DENV-2 [5]; passage 4, 3a 200 μM, Huh-7): 2
Transversion U→A, number of mutations (DENV-2 [5]; passage 4, 3a 200 μM, Huh-7): 2
EC50 (DENV-2 [6]): 20 ± 11 µM
genomic RNA in supernatant (DENV-2 [7]): no genomic RNA was detected
